Where two headings read alike, the source gives them in different places.
Columns and labels:
[1] = molecular target: T1, HIV-1 protease (wild type) (Human immunodeficiency virus type 1 group M subtype B, UniProt P04585); experiment: Protease Inhibition Assay (Pepcleave), inhibition of microbial expressed HIV protease; type: biochemical
T1 construct: made in house; host or cells: Escherichia coli
Description: Assay for Inhibition of Microbial Expressed HIV Protease
Inhibition studies of the reaction of the protease (which was expressed in Eschericia coli) with a peptide substrate [Val-Ser-Gln-Asn-(betanaphtyl)Ala-Pro-Ile-Val]. The inhibitor is first preincubated with the HIV-1 protease (wild type) enzyme in assay buffer (50 mM sodium acetate, pH 5.5, 100 mM NaCl, and 0.1% BSA) for 30 minutes at room temperature. Substrate is added to 400 micromolar in a total volume of 80 microliters containing 10 picomolar HIV-1 protease and the reaction is incubated for 1 hour at 30° C. The reaction is quenched with the addition of 120 microliters of 10% phosphoric acid. The product formation is determined after separation of product and substrate on a Zorbax Eclipse XDB-C18 column connected to an Agilent 1100 high performance liquid chromatography system with fluorescence detection (excitation 270 nanometer and emission 330 nanometer). Alternatively, the inhibitor is preincubated with enzyme and substrate as described above, but in a total volume of 20 microliters containing 20 picomolar HIV-1 protease and the reaction is incubated for 1 hour at 30° C. The reaction is quenched with the addition of 30 microliters of 1 micromolar indinavir (indinavir is also used as an internal standard), and the product formation is determined after separation of product and substrate on a Zorbax Eclipse XDB-C18 column connected to an API 4000 mass spectrometer (Applied Biosystems) with multiple reaction monitoring (transitions were 644.5/428.9 and 615.4/422.2 (M1/M3) for product and indinavir respectively). The extent of inhibition of the reaction is determined from the peak area of the products. HPLC of the products, independently synthesized, provided quantitation standards and confirmation of the product composition.
Protease Inhibition Assay (“Pepcleave”) data were collected based on the wild-type HIV-1 protease enzyme. The assay monitors the cleavage of a 8-mer peptide (VSQN[β-Nal]PIV) where the tyrosine at P1 position is replaced by β-Naphthyl-alanine. Upon cleavage of the peptide by HIV-1 protease, the product is separated from substrate by HPLC column and detected at Ex.=270 nm/Em=330 nm.

[2] = system: human immunodeficiency virus type 1; experiment: Acute Infection Assay (Spread); type: cell-based, HIV-1; settings: Human immunodeficiency virus 1; 10% FBS; mean of at least two independent experiments; read-out: Spread IC95
Text: Acute Infection Assay (“Spread”) data were generated in 10% FBS, and according to the methods disclosed by J. P. Vacca et al, “L-735,524: An orally bioavailable human immunodeficiency virus type 1 protease inhibitor,” Proc. Nati. Acad. Sci. USA, Vol. 91, pp. 4096-4100 (April 1994).

[3] = wild-type HIV-1 protease, mean of at least two independent experiments, read-out: Pepcleave Enzyme inhibition IC50

Row | SMILES | IC50 [1, 3] [nM] | IC95 [2] [nM] | IC50 [1] [nM]
1 | COC(=O)N[C@H](C(=O)Nc1cnccc1SC[C@@H](CO)N(Cc1cn(C)nc1C)S(=O)(=O)c1ccc2ncsc2c1)C(c1ccccc1)c1ccccc1 [Example 26, N-(4-{[(2R)-2-{(1,3-benzothiazol-6-ylsulfonyl)[(1,3-dimethyl-1H-pyrazol-4-yl)methyl]amino)-3-hydroxypropyl)sulfanyl}pyridin-3-yl)-Nα-(methoxycarbonyl)-β-phenyl-L-phenylalaninamide] | 0.4 | 1260 | 
2 | COC(=O)N[C@H](C(=O)Nc1cnccc1SC[C@@H](CO)N(Cc1cnoc1)S(=O)(=O)c1ccc2ncsc2c1)C(c1ccccc1)c1ccccc1 [Example 27, N-[4-({(2R)-2-[(1,3-benzothiazol-6-ylsulfonyl)(isoxazol-4-ylmethyl)amino]-3-hydroxypropyl}sulfanyl)pyridin-3-yl]-Nα-(methoxycarbonyl)-β-phenyl-L-phenylalaninamide] | 6.9 | 1500 | 
3 | COC(=O)N[C@H](C(=O)Nc1ccccc1SC[C@@H](CO)N(CCC(C)C)S(=O)(=O)c1ccc(N)cc1)C(c1ccccc1)c1ccccc1 [Example 28, N-(2-{[(2R)-2-{[(4-aminophenyl)sulfonyl](3-methylbutyl)amino}-3-hydroxypropyl]sulfanyl}phenyl)-Nα-(methoxycarbonyl)-β-phenyl-L-phenylalaninamide] | 0.1 | 194 | 
4 | COC(=O)N[C@H](C(=O)Nc1ccccc1S(=O)(=O)C[C@@H](CO)N(CCC(C)C)S(=O)(=O)c1ccc(N)cc1)C(c1ccccc1)c1ccccc1 [Example 29, N-(2-{[(2R)-2-{[(4-aminophenyl)sulfonyl)(3-methylbutyl)amino}-3-hydroxypropyl]sulfonyl}phenyl)-Nα-(methoxycarbonyl)-β-phenyl-L-phenyl alaninamide] | 2.9 | 1250 | 
5 | COC(=O)N[C@H](C(=O)Nc1ccccc1[S+]([O-])C[C@@H](CO)N(CCC(C)C)S(=O)(=O)c1ccc(N)cc1)C(c1ccccc1)c1ccccc1 (stereo partly drawn) [Example 30, N-(2-{[(2R)-2-{[(4-aminophenyl)sulfonyl](3-methylbutyl)amino}-3-hydroxypropyl]sulfinyl}phenyl)-Nα-(methoxycarbonyl)-β-phenyl-L-phenyl alaninamide] | 2.1 | 1780 | 
6 | COC(=O)N[C@H](C(=O)Nc1cccc(C[C@@H](CO)N(CCC(C)C)S(=O)(=O)c2ccc(N)cc2)c1)C(c1ccccc1)c1ccccc1 [Example 31, N-{3-[(2S)-2-{[(4-aminophenyl)sulfonyl](3-methylbutyl)amino}-3-hydroxypropyl]phenyl}-Nα-(methoxycarbonyl)-β-phenyl-L-phenylalaninamide] | 3.7 | 1260 | 
7 | COC(=O)N[C@H](C(=O)Nc1cccc(C[C@@H](CO)N(CCC(C)C)S(=O)(=O)c2ccc(CO)cc2)c1)C(c1ccccc1)c1ccccc1 [Example 32, N-(3-{(2S)-3-hydroxy-2-[{[4-(hydroxymethyl)phenyl]sulfonyl}(3-methylbutyl)amino]propyl}phenyl)-Nα-(methoxycarbonyl)-β-phenyl-L-phenylalaninamide] |  | 1740 | 2.4

Source: US9187415B2, “Sulfonamides as HIV protease inhibitors” (Merck Canada Inc., priority 2010, dated 2015)
